The record followed here is PMC6024778 (Viruses, 2018).

The subject of data set [1] is MERS-CoV. Description: microbe, parasite or virus in culture. It is filed as cell-based.
The subject of data set [2] is Huh-7 cells.
Data set [3] in a line: in vitro. Conditions: human.
The test system of data set [4] is MERS-CoV nucleocapsid (N) protein. It is filed as cell-based.
Data set [5] relates to MERS-CoV. Format: cell-based.
Data set [6] relates to MERS-CoV. Format: cell-based. This is another data set of the same source.
The subject of data set [7] is MERS-CoV. It is filed as cell-based. The source holds these as a separate data set.
The test system of data set [8] is MERS-CoV. Format: cell-based. The source holds these as a separate data set.
The subject of data set [9] is HCoV-229E. Description: microbe, parasite or virus in culture. It is filed as cell-based. Conditions: Human coronavirus 229E.
The nature of data set [10]: in vitro. Conditions: cat.
Data set [11] relates to HCoV-OC43. Description: microbe, parasite or virus in culture. Format: cell-based, betacoronavirus OC43 strain. Conditions: Betacoronavirus 1, OC43.
The test system of data set [12] is MERS-CoV. It is filed as cell-based. This is another data set of the same source.
Data set [13] has as its system rMERS-CoV. Description: microbe, parasite or virus in culture. It is filed as cell-based, MERS-CoV. The conditions noted are these: Middle East respiratory syndrome-related coronavirus, Huh-7, 72 h.
Data set [14] concerns Feline infectious peritonitis virus (FIPV). Description: microbe, parasite or virus in culture. Format: cell-based. The conditions noted are these: Alphacoronavirus 1.
Setting [15] is: Middle East respiratory syndrome-related coronavirus, Huh-7, 72 h.

Structures can show the parent of a compound that is named as a salt. Where two headings read alike, the source gives them in different places.

For `CC(=O)c1ccc2c(c1)N(CCCN1CCN(CCO)CC1)c1ccccc1S2` [Acetophenazine maleate], in data set [1] (read-out: EC50), the EC50 worked out at 11.2 ± 5 µM. This compound displayed a CC50 in data set [2] of 23.6 ± 3.8 µM.
On to `CCN(CC)Cc1cc(Nc2ccnc3cc(Cl)ccc23)ccc1O` [Amodiaquine dihydrochloride dehydrate], for which the EC50 in data set [1] (read-out: EC50) came out at 2.4 ± 0.7 µM.
Turning to `CCN(CC)Cc1cc(Nc2ccnc3cc(Cl)ccc23)ccc1O` [Amodiaquine dihydrochloride], in [1] (read-out: EC50), the EC50 turned out to be 2.1 ± 0.7 µM.
For the compound `CCN(CC)CCCC(C)Nc1ccnc2cc(Cl)ccc12` (stereo not shown) [Chloroquine diphosphate], the midpoint of the response in [1] (setting [15]), the EC50, lay at 12 ± 3 µM. Further, the CC50 in data set [3] was > 50 µM.
The corresponding values for `CN(C)CC/C=C1\c2ccccc2CSc2ccccc21` [Dosulepin hydrochloride] are 3.4 µM and 28.9 µM.
Turning to `Nc1ccn([C@@H]2O[C@H](CO)[C@@H](O)C2(F)F)c(=O)n1` [Gemcitabine, gemcitabine hydrochloride], the “viral N protein expression” value in [4] is listed as “completely abolished”. Moreover, in data set [5], the “production of infectious MERS-CoV particles” value was “completely abolished”. In data set [1] (setting [15]), this compound showed a half-maximal effective concentration (EC50) of 1.2 µM.
In data set [1] (setting [15]), `CCN(CCO)CCCC(C)Nc1ccnc2cc(Cl)ccc12` (stereo not shown) [Hydroxychloroquine sulfate] gave an EC50 of 13.3 ± 2.1 µM. In addition, the CC50 in [3] was > 50 µM.
Regarding `OCCOCCN1CCN(C(c2ccccc2)c2ccc(Cl)cc2)CC1` (stereo not shown) [Hydroxyzine pamoate], the EC50 in data set [1] (setting [15]) stood at 14.4 ± 3.4 µM. Further, in data set [3], the CC50 was > 50 µM.
Consider `COc1ccc2c(c1)N(C[C@H](C)CN(C)C)c1ccccc1S2` [Methotrimeprazine maleate salt], for which, in data set [1] (read-out: EC50), the EC50 was found to be 2.5 µM. For the same compound, the CC50 in [2] was 24.5 µM.
Consider `O=C(Nc1ccncc1)c1cc([N+](=O)[O-])ccc1Cl` [N1-(4-pyridyl)-2-chloro-5-nitrobenzamide], for which, in [1] (setting [15]), the EC50 is 10.5 ± 0.3 µM. Moreover, in [3], the CC50 was > 50 µM.
Turning to `COc1ccc(C2=N[C@@H](c3ccc(Cl)cc3)[C@@H](c3ccc(Cl)cc3)N2C(=O)N2CCNC(=O)C2)c(OC(C)C)c1` [Nutlin-3], the response in data set [1] (setting [15]) was half-maximal at 6.9 ± 1.4 µM (EC50). The CC50 in data set [3] was determined as 26.8 ± 1.6 µM.
As for `CN1CCN(CCOc2cc(OC3CCOCC3)c3c(Nc4c(Cl)ccc5c4OCO5)ncnc3c2)CC1` [Saracatinib], the “intracellular viral genomic RNA and mRNA expressions” value in [6] was “significant decrease”. Also, in data set [6], the “syntheses of intracellular viral genomic RNA and mRNAs” value was “severely affected”. The “viral genomic RNA and mRNA syntheses” value in data set [6] is “near complete inhibition”. In data set [7], the “antiviral activity (viral titer)” value is given as “less effective”. In data set [7], the “reduction of MERS-CoV titer” value is “more pronounced”. For the same compound, the viral titer result in data set [7] is on record as “marked reduction”. For the same compound, in data set [5], the “reduction of viral titer” value is “marginal reduction”. In data set [8], the “reduction in infectious virus titers” value was ~ 80%. In addition, the “selectivity index (SI)” value in [1] is recorded as > 17. In addition, the EC50 was 2.9 ± 0.6 µM in data set [1] (setting [15]); 2.4 µM in data set [9]; 5.1 µM in data set [11]; 9.3 µM in [13]; 7 µM in data set [14]. Also, the CC50 in data set [2] (human) is 57 ± 5.5 µM; in data set [10], > 50 µM. For the same compound, the “intracellular viral genomic (ORF1a) and mRNA (upE) syntheses” value in [12] was “near complete inhibition”.
For `CN1CCN(c2nc(C3=C(c4c[nH]c5ccccc45)C(=O)NC3=O)c3ccccc3n2)CC1` [Sotrastaurin], in [1] (setting [15]), the EC50 is ~9.7 µM. Also, in data set [3], the CC50 was > 50 µM.
